Source: patent publication US20050203115A1, “Narcotic-NSAID ion pairs” (priority 2004, published 2005)
Where two headings read alike, the source gives them in different places.

Assays:
[1] = methanolic solution 61 mg/mL added to HCl 0.1 N
Excerpt: Measurements were obtained using a Sympatec HELOS model KF particle sizer with SUCELL and R5 lens (0.5-875 μm), pump, and stirrer speeds set to 50% of the maximum value.

[2] = approx. 48 mg in 400 mL, 36.8° C., approximately 12 hours
Description: The solutions were stirred by paddles at 150 RPM for approximately 12 hours. […] The standards and sample preparations were measured at 282 nm in a 1 cm cell using a UV spectrophotometer. The results were determined from the linearity curve generated from the standard data.

## CCC(=O)O[C@](Cc1ccccc1)(c1ccccc1)[C@H](C)CN(C)C.O=C(O)Cc1ccccc1Nc1c(Cl)cccc1Cl [Propoxyphene Diclofenate, (2S,3R)-(+)-4-(Dimethylamino)-3-methyl-1,2-diphenyl-2-butanol Propionate Diclofenate]
[1]; 15 minutes
  Particle size Mean: 152.4 μm
  Particle size ≦50%: 141.2 μm
  Particle size ≦90%: 287.9 μm
[1]; 45 minutes
  Particle size Mean: 155.5 μm
  Particle size ≦50%: 143.0 μm
  Particle size ≦90%: 293.9 μm
[1]; 75 minutes
  Particle size Mean: 161.7 μm
  Particle size ≦50%: 140.5 μm
  Particle size ≦90%: 308.6 μm
[1]; 120 minutes
  Particle size Mean: 149.2 μm
  Particle size ≦50%: 135.4 μm
  Particle size ≦90%: 286.3 μm
[1]; 150 minutes
  Particle size Mean: 124.2 μm
  Particle size ≦50%: 110.2 μm
  Particle size ≦90%: 238.4 μm
[2]; water pH 3
  % Dissolved: 0.009%
  mg Dissolved from 48 mg Solution: 0.004 mg
  mg/mL Dissolved: 1.0528e-05 mg/mL
[2]; water pH 5
  % Dissolved: 74.878%
  mg Dissolved from 48 mg Solution: 36.005 mg
  mg/mL Dissolved: 0.09 mg/mL
[2]; water pH 7
  % Dissolved: 75.677%
  mg Dissolved from 48 mg Solution: 36.644 mg
  mg/mL Dissolved: 0.0916 mg/mL
[2]; water pH 9
  % Dissolved: 71.168%
  mg Dissolved from 48 mg Solution: 34.018 mg
  mg/mL Dissolved: 0.08504 mg/mL
[2]; water pH 11
  % Dissolved: 39.395%
  mg Dissolved from 48 mg Solution: 18.700 mg
  mg/mL Dissolved: 0.04676 mg/mL
